Patent US5610174A, “Use of α1A -selective adrenoceptor agonists for the treatment of urinary incontinence” (priority 1995, dated 1997)
Read-outs that look alike come from different tables or passages of the source.

Tests used:
[1] = target: T1, dog BN, female (α1-adrenoceptor) (Canis lupus, UniProt A0A8I3NK63); experiment: Contractile study in isolated female dog bladder neck; settings: versus phenylephrine-induced contraction
T1 sequence (A0A8I3NK63 1-466): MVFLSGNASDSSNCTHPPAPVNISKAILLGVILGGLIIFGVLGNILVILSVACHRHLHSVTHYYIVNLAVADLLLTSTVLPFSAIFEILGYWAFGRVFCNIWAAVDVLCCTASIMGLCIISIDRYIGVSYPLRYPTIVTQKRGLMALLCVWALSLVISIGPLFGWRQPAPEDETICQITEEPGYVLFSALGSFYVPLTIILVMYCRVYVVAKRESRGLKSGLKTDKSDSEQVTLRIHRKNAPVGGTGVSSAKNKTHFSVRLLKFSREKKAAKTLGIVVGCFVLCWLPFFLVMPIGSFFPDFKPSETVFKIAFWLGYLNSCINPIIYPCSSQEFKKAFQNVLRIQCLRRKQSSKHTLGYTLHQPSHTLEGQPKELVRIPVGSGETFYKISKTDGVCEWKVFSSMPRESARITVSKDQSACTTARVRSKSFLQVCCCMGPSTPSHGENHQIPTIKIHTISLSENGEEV
From the text: (§1) In addition, similar studies were done using bladder neck tissue from female dogs. In order to identify the specific receptor subtype in each tissue, the pharmacological profile was compared to the profiles for these same drugs at the cloned human α1A, α1B, or α1C subtypes.
(§2) Tissue samples from the proximal urethra of male humans and male and female rabbits, as well as tissue samples from both the proximal urethra and bladder neck of male and female dogs were cut into transverse strips (3×10 mm) and suspended under 0.5 g tension in Krebs' physiological buffer at 37° C. To determine agonist potency (pEC50 )and antagonist affinity constants (pKB), concentration-effect curves to the non-selective agonist phenylepherine were constructed in the absence and in the presence of increasing concentrations of the antagonist. Up to four sequential curves were constructed in each tissue. Antagonists were allowed to equilibrate for 1h before each concentration-effect curve, and the drugs were completely washed out in between successive curves. In each experiment, one tissue served as a "time control", in which no antagonist was added so that changes in tissue sensitivity could be assessed as a function of time. […] In instances in which a single concentration of antagonist was used, pKB values were determined by the equation: […], where CR is defined as the ratio of the agonist EC50 in the presence of the antagonist to that in the absence of the antagonist.

[2] = target: T2, rabbit urethra, male (α1-adrenoceptor) (Oryctolagus cuniculus, UniProt O02824); experiment: Contractile study in isolated male rabbit urethra; settings: versus phenylephrine-induced contraction
T2 sequence (O02824 1-466): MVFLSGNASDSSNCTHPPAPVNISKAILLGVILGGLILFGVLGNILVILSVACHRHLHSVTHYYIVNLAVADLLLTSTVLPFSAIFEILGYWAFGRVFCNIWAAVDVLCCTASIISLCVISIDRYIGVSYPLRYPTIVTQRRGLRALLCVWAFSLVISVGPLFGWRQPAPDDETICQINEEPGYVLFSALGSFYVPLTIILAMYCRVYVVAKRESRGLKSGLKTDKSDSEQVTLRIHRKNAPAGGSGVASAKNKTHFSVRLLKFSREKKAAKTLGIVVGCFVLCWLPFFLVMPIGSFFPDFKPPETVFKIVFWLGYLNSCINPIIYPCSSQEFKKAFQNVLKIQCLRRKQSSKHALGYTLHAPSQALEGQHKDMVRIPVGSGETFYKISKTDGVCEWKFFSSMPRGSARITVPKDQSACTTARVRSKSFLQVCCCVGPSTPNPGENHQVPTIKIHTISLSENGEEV
From the text: as §1, §2

[3] = target: T3, rabbit urethra, female (α1-adrenoceptor) (Oryctolagus cuniculus, UniProt O02824); experiment: Contractile study in isolated female rabbit urethra; settings: versus phenylephrine-induced contraction; read-out: pKB Rabbit Urethra Female (converted)
T3 construct: proximal urethra of male humans and male and female rabbits; from tissue; host or cells: rabbit proximal urethra strips, male or female
T3 sequence (O02824 1-466): T2 sequence (O02824 1-466)
From the text: as §1, §2

[4] = target: T4, dog BN, male (α1-adrenoceptor) (Canis lupus, UniProt A0A8I3NK63); experiment: Contractile study in isolated male dog bladder neck; settings: versus phenylephrine-induced contraction
T4 sequence (A0A8I3NK63 1-466): T1 sequence (A0A8I3NK63 1-466)
From the text: as §1, §2

human α1B adrenoceptor = target: T5, human α1B adrenoceptor (Homo sapiens, UniProt P35368); experiment: Radioligand binding ([3H]prazosin) at cloned human α1B
T5 construct: The entire coding region of the α1B receptor (1563 bp); expressed in transfected cells
T5 sequence (P35368 1-520): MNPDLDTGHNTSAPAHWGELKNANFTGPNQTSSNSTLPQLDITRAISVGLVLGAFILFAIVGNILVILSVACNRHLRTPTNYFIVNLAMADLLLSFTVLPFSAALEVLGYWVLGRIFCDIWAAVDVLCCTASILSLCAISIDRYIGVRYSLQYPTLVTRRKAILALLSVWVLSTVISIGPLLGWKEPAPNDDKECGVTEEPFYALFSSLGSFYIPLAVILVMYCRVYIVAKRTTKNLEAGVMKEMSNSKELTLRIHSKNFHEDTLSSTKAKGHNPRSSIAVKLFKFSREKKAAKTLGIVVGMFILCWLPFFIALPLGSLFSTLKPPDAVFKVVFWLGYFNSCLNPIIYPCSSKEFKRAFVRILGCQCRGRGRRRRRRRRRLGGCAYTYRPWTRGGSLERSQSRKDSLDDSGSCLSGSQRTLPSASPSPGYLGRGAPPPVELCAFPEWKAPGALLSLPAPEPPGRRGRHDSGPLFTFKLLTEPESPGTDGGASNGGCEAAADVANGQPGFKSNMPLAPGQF
Description: (§3) These cell lines were prepared by transfecting the cloned cDNA or cloned genomic DNA or constructs containing both genomic DNA and cDNA encoding the human α-adrenoceptors as follows:
The construct involved ligating the full-length containing EcoRI brainstem cDNA fragment from λ ZapII into the expression vector. Stable cell lines were obtained as described above.
(§4) Transfected cells from culture flasks were scraped into 5 ml of 5 mM Tris-HCl, 5 mM EDTA, pH 7.5, and lysed by sonication. The cell lysates were centrifuged at 1000 rpm. for 5 min at 4° C., and the supernatant was centrifuged at 30,000 ×g for 20 min at 4° C. The pellet was suspended in 50 mM Tris-HCl , 1 mM MgCl2, and 0.1% ascorbic acid at pH 7.5. […] The reaction was stopped by filtration through GF/B filters using a cell harvester.

[5] = cited from earlier work; for major side effect of use in incontinence (blood pressure): dose-dependent; for major side effect of use in incontinence (blood pressure) / CNS side effects in some patients: Andersson and Sjogren, 1982; for CNS side effects in some patients: stimulant actions in the CNS, Wein, 1987
[6] = target: T6, human urethra (α1-adrenoceptor) (Homo sapiens, UniProt P35348); experiment: Contractile study in isolated human male urethra
T6 construct: Tissue samples from the proximal urethra of male humans; from tissue; host or cells: human male proximal urethra strips
T6 sequence (P35348 1-466): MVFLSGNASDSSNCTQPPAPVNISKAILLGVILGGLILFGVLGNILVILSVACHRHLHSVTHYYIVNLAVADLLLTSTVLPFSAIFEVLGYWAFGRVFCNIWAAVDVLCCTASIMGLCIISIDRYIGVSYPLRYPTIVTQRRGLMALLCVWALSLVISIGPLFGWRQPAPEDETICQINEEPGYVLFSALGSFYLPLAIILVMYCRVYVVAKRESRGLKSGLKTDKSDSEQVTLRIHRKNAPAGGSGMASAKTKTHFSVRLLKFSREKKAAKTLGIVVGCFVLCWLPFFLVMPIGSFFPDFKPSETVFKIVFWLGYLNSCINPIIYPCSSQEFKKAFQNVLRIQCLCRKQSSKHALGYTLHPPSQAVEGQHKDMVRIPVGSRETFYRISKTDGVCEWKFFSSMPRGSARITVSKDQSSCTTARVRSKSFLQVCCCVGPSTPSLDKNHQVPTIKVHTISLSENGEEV
From the text: as §1, §2

human α1A adrenoceptor = target: T7, human α1A adrenoceptor (Homo sapiens, UniProt P25100); experiment: biochemical; assay type: binding
T7 sequence (P25100 1-572): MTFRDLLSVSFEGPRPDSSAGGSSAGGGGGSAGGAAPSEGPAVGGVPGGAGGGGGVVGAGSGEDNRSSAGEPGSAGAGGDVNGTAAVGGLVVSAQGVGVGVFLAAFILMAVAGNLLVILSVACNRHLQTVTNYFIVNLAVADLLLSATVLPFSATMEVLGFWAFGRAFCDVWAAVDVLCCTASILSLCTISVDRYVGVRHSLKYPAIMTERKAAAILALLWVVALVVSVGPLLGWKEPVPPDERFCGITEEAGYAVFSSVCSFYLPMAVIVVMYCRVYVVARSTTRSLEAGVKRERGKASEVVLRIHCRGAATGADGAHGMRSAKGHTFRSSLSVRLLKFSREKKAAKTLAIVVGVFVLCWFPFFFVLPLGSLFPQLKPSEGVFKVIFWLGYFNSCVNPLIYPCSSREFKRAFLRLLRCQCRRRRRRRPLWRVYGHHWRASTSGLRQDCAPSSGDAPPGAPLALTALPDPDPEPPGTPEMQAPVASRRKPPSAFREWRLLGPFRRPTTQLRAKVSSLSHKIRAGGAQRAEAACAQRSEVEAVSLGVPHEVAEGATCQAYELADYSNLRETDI
Description: as §3
The cells were grown, in a controlled environment (37° C., 5% CO2), as monolayers in Dulbecco's modified Eagle's Medium (GIBCO, Grand Island, N.Y.) containing 25 mM glucose and supplemented with 10% bovine calf serum, 100 units/ml penicillin g, and 100 μg/ml streptomycin sulfate.
as §4

human α1C adrenoceptor = target: T8, human α1C adrenoceptor (Homo sapiens, UniProt P35348); experiment: biochemical; assay type: binding
T8 sequence (P35348 1-466): T6 sequence (P35348 1-466)
Description: as §3
The construct involved ligating three partial overlapping fragments: a 5' 0.6 kb HincII genomic clone, a central 1.8 EcoRI hippocampal cDNA clone, and a 3' 0.6 Kb PstI genomic clone. The hippocampal cDNA fragment overlaps with the 5' and 3' genomic clones so that the HincII and PstI sites at the 5' and 3' ends of the cDNA clone, respectively, were utilized for ligation. This full-length clone was cloned into the KpnI site of the expression vector, using the 5' and 3' KpnI sites of the fragment, derived from vector (i.e., pBluescript) and 3'-untranslated sequences, respectively. Stable cell lines were obtained as described above.
as §4

[7] = Andersson and Sjogren, 1982; cited from earlier work
[8] = prodrug; cited from earlier work

## COc1ccccc1N1CCN(CCN2C(=O)CC3(CCCC3)CC2=O)CC1 [BMY 7378]
[1]
  pKB Dog BN Female: 6.8
[2]
  pKB Rabbit Urethra Male: 6.5
[3]
  Kb: 794 nM
[4]
  pKB Dog BN Male: 7.1
Human α1B adrenoceptor; Table 2, antagonists, versus 3H-prazosin, read-out: pKI (antagonist affinity, 3H-prazosin binding) hα1B (converted)
  Ki: 100 nM

## CN[C@@H](C)[C@H](O)c1ccccc1 [ephedrine]
[5]
  major side effect of use in incontinence (blood pressure): increase in blood pressure
  CNS side effects in some patients: insomnia, anxiety and dizziness

## COC(=O)C1=C(C)NC(C)=C(C(=O)OCCCN2CCC(c3ccccc3)(c3ccccc3)CC2)C1c1ccc([N+](=O)[O-])cc1.Cl (racemic) [Compound 1, (±)-2,6-Dimethyl-4-(4-nitrophenyl)-1,4-dihydro-pyridine-3,5-dicarboxylicacid [3-(4,4-diphenylpiperidin-1-yl)propyl]ester methyl ester hydrochloride]
[6]
  Kb: 7.94 nM
Human α1A adrenoceptor
  Ki: 316 nM
Human α1C adrenoceptor
  Ki: 3.16 nM
[4]
  pKB Dog BN Male: 6.2
Human α1B adrenoceptor
  Ki: 79.4 nM

## Clc1cccc(Cl)c1N=C1NCCN1 [clonidine]
[5]; in addition to antihypertensive effect
  undesirable side effects at therapeutic doses: dry mouth, sedation and orthostatic hypotension

## COc1ccc(OC)c(C(O)CNC(=O)CN)c1 (stereo not drawn) [midodrine]
[7]
  clinical efficacy in urinary incontinence: has not been demonstrated conclusively
[8]
  in vivo conversion to active phenylethylamine: converted in vivo to the active phenylethylamine ST-1059

## CC(N)C(O)c1ccccc1 (stereo not drawn) [phenylpropanolamine]
[5]
  major side effect of use in incontinence (blood pressure): increase in blood pressure
  CNS side effects in some patients: insomnia, anxiety and dizziness

## CNC[C@H](O)c1cccc(O)c1 [phenylephrine]
[5]
  major side effect of use in incontinence (blood pressure): increase in blood pressure
